Where only a bound is given, the exact number is not on record here.

In test [1] the test system is CaSki cervical carcinoma cell line (HPV16 E6 and E7 positive HLA-A2 positive). The experiment in a line: Lysis of CaSki tumor cells by peptide-specific CTLs. It is filed as cell-based, human. Further details: key to Lysis: + denotes a greater level than the native epitope; = denotes the same level as the native epitope; − denotes a lower level than the native epitope. The source says:
(§1) HPV-specific T cells were generated using infection of dendritic cells (DCs) with Ad-HPV followed by stimulation of the T cells with each agonist and native peptide. In particular, DCs were infected with Ad5 HPV at 20,000 MOI. Infected DCs were used to generate specific CTLs using autologous PBMC. Autologous DCs were used as APCs for three in vitro stimulations (IVS). Autologous peptide-pulsed B cells were used to re-stimulate antigen-specific CTLs for two additional IVS. CTLs were used at IVS5.
(§2) Results are expressed in % specific lysis (SD). Effector-to-target ratio used was 25:1. CTLs were established from a normal HLA-A2 donor. CaSki is a cervical carcinoma cell line (HPV16 E6 and E7 positive HLA-A2 positive). ASPC-1 is a pancreatic cancer cell line (HPV16 E6 and E7 negative HLA-A2 negative).

The test system of test [2] is HPV-specific T cell lines. The experiment in a line: IFN-γ production by HPV-specific T cell lines stimulated with Ad5-infected human dendritic cells. Format: cell-based. The method, then:
Human DC (6 day culture in IL-4 and GM-CSF) were infected with Ad5 [E1,E2b]-HPV vector and Ad5 [E1,E2b]-Null at 1×10^5/well (24-well plate) in 0.5 ml of AIM-V. Ad5 vectors were used at 20,000 MOI for 1 hour and then 1.5 ml of AIM-V were added to each well. Infected DCs were incubated for 48 hours and then washed and used for stimulation of human antigen-specific T cells. Results are expressed in pg of IFN-γ per 5×10^5 T cells/ml. DC only=<0.73 pg/ml.

Test [3] concerns HN-12 head and neck squamous carcinoma cell line (HLA-A2 positive). Put plainly: Lysis of HN-12 cells by peptide-specific CTLs. It is filed as cell-based, human.
Excerpt: as §1
(§3) Results are expressed in % specific lysis (SD). Effector-to-target ratio used was 25:1. CTLs were established from a normal HLA-A2 donor. HN-4 and HN-12 cells are head and neck squamous carcinoma cell lines (HLA-A2 positive). ASPC-1 is a pancreatic cancer cell line (HPV16 E6 and E7 negative HLA-A2 negative).

The next test deals with T1, HLA-A2 molecules (Homo sapiens, UniProt P04439, D140Y/D185E/D98H/E176V/E277Q/G131W/G231S/I119V/I121R/I166T/I218V/L300P/L318F/N151K/N90K/P208A/P217A/Q86G/Q94H/R138H/R169H/T345S).
T1 construct: endogenous in cells; host or cells: T2A2 cells (T2 cell line expressing HLA-A2; only the column head names it)
The experiment in a line: T2A2 binding of HPV-16 E6/E7 peptides to HLA-A2. Set-up: T2A2 Binding: unit not given here.

Test [4] relates to ASPC-1 pancreatic cancer cell line (HPV16 E6 and E7 negative HLA-A2 negative). The experiment in a line: Lysis of ASPC-1 control cells by peptide-specific CTLs. The settings on record: CTLs at IVS5, effector-to-target ratio 25:1. Format: cell-based, human.
Excerpt: as §1, §2, §3

Test [5] concerns HN-4 head and neck squamous carcinoma cell line (HLA-A2 positive). The experiment in a line: Lysis of HN-4 cells by peptide-specific CTLs. Format: cell-based, human.
Excerpt: as §1, §3

The subject of the next test is CTL (T cells). The experiment in a line: IFN-γ production by CTL stimulated by autologous B cells pulsed with corresponding peptide. It is filed as cell-based, human. From the text:
Autologous B cells were pulsed with each native and agonist E6 peptides to stimulate production of interferon by T cells.
Autologous B cells were pulsed with each native and agonist E7 peptides to stimulate production of interferon by T cells.

[6] abbreviates: CTLs at IVS5, effector-to-target ratio 25:1.
[7] abbreviates: compared to native counterparts.

In the case of RTLEDLLMGV [E7-A3], in test [1] (setting [6]), the “% specific lysis (SD), CaSki (HLA-A2+ HPV E6+ and E7+)” value is 54.5 (7.3) %. Besides, the “lysis of CaSki cervical carcinoma cells (in words)” value in test [1] (compared to T cells generated with the native epitope counterpart) is “Enhanced lysis”. In test [1] (level compared with the native epitope), the Lysis result is reported as “+”. In addition, the IFN-γ in test [2] (DCs infected with Ad5 [E1,E2b]-HPV (20,000 MOI)) is 931 pg of IFN-γ per 5×10^5 T cells/ml; in test [2] (DCs infected with Ad5 [E1,E2b]-Null (20,000 MOI)), <0.73 pg of IFN-γ per 5×10^5 T cells/ml; in test [2] (DCs only (uninfected)), <0.73 pg of IFN-γ per 5×10^5 T cells/ml; in test [2] (No DCs), <0.73 pg of IFN-γ per 5×10^5 T cells/ml; with CTL (T cells) (CTL line stimulated by autologous B cells pulsed with corresponding HPV-16 E7 peptide), 840 pg/mL; in the test with CTL (T cells) (E7 CTL line, autologous B cells with NO peptide), less than 15.6 pg/mL. Besides, the “activation of T cells directed against the epitope (in words)” value in test [2] (human DCs infected with Ad-5[E1,E2b^neg]HPV) was “able to activate”. Besides, in test [3] (setting [6]), the “% specific lysis (SD), HN-12” value is 41.9 (2.9) %. Moreover, the “lysis of HN-12 (in words)” value in test [3] (setting [7]) is given as “more lysis”. Moreover, the “HLA-A2 binding (in words)” value on HLA-A2 molecules is “strongest”. The “T2A2 Binding” value at HLA-A2 molecules (binding to HLA-A2) is listed as 1,263. The “% specific lysis (SD), ASPC-1 (HLA-A2neg HPV E6neg and E7neg)” value in test [4] (Table 4) was 0.6 (0.1) %. Further, the “% specific lysis (SD), ASPC-1” value in test [4] (Table 5) was 0.6 (0.7) %. In addition, the “% specific lysis (SD), HN-4” value in test [5] (setting [6]) is on record as 40.2 (1.8) %. The “lysis of HN-4 (in words)” value in test [5] (setting [7]) is “more lysis”. For the same sequence, the “interferon production (in words)” value with CTL (T cells) (T cells stimulated by peptide-pulsed autologous B cells) is “best interferon production”.

The values above are taken from patent US11311613B2, “Development of agonist epitopes of the human papillomavirus” (priority 2016, dated 2022).
